Data taken from patent US12636385B2, “Selective ligands for tau aggregates” (Sentonix, Inc., priority 2018, dated 2026).

Experiments:
0N4R Tau fibrils = target: T1, 0N4R Tau fibrils (Homo sapiens, UniProt P10636); assay: ^3H-THK5117 competition binding to tau fibrils in vitro; details: for IC50: 3 nM [^3H]-THK5117, recombinant 0N4R tau fibrils, average if run more than once; for Selectivity for tau relative to Aβ: calculated from [^3H]-THK5117 tau and [^3H]-AZD2184 Aβ assays
T1 construct: made in house
T1 sequence (P10636 1-383 isoform P10636-6): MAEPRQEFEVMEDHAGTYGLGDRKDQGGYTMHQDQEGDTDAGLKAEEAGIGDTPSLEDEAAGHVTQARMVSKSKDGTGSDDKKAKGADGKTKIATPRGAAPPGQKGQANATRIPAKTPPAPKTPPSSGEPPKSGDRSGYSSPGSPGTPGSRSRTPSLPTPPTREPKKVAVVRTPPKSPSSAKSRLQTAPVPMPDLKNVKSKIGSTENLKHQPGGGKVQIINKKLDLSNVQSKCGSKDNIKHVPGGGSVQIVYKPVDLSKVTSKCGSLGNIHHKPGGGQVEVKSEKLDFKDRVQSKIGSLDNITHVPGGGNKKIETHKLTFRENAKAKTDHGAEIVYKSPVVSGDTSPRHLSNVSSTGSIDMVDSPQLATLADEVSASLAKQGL
Procedure: Preparation of recombinant 0N4R Tau fibrils was performed as previously described in Morozova, O. A., Biochemistry (2013), Vol., 52(40), pages 6960-6967. Competition binding experiments to 0N4R Tau fibrils were performed by incubating increasing concentrations [10^−10-10^−6 M] of the Example compounds of the invention, or the known tau specific ligand PBB3 (PBB3 was synthesized as previously described in M. Maruyama, et al, Neuron 2013, 79, 1094-1108) or MK6240 (Novandi Chemistry AB), in the presence of 3 nM of the known tau ligand [^3H]-THK5117 (Novandi Chemistry) and 0.2 mM 0N4R tau fibrils in binding buffer (50 mM Tris-HCl, pH 7.4, 0.1% BSA) for 1 h in the dark, and at 22° C. The incubation was terminated by filtration through a Whatman GF/B glass filter (Whatman International, Kent, UK) using a Brandel cell harvester. The filter was then washed rapidly four times with 3 mL of ice-cold wash buffer (5 mM Tris-HCl, 0.25 mM NaCl, 5% EtOH), and equilibrated for 1 h in scintillation vials containing 5 mL of Ultima Gold scintillation fluid before being analysed using a Liquid Scintillation Analyzer.
The results are shown in Table 2 in the column labeled “Tau IC50”.
Relative selectivity for tau compared to Aβ for the exemplified compounds was calculated using the results for the [^3H]-THK5117 tau and [^3H]-AZD2184 Aβ assays described above. The calculated results are shown in Table 2 in the column labeled “Selectivity for tau relative to Aβ”.

Aβ(1-42) amyloid fibrils = target: T2, Aβ(1-42) amyloid fibrils (Homo sapiens, UniProt P05067); assay: ^3H-AZD2184 competition binding to Aβ(1-42) fibrils in vitro; details: [^3H]-AZD2184, Aβ(1-42) amyloid fibrils; average if run more than once
T2 construct: Aβ(1-42) amyloid fibrils
T2 sequence (P05067 672-713): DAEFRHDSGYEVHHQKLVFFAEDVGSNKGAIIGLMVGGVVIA
Procedure: Competition binding experiments to Aβ(1-42) amyloid fibrils were performed as previously described in Jureus, A., et al, Journal of Neurochemistry (2010), Vol. 114, pages 784-794 for the Example compounds of the invention indicated in Table 2, or the known tau specific ligand PBB3 (PBB3 was synthesized as previously described in M. Maruyama, et al, Neuron 2013, 79, 1094-1108).
The results are shown in Table 2 in the column labeled “Aβ IC50”.

Row | Compound | IC50 (0N4R Tau fibrils) | Selectivity for tau relative to Aβ (0N4R Tau fibrils) | IC50 (Aβ(1-42) amyloid fibrils)
1 | OCCC1CCN(c2ccc(-c3cc4ccccc4o3)c(F)n2)CC1 [Compound 46] | 6 nM | 8.8 | 53 nM
2 | COc1ccc2[nH]c(-c3ccc(N4CCC(CO)CC4)nc3F)cc2c1 [Compound 47] | 2 nM | 17 | 33 nM
3 | OCC1CCN(c2ccc(-c3cc4cc(O)ccc4[nH]3)c(F)n2)CC1 [Compound 48] | 5 nM | 37 | 187 nM
4 | FCCC1CCN(c2ncc(-c3cn4ccccc4n3)cn2)CC1 [Compound 52] | 49 nM | 1.7 | 84 nM
5 | COc1ccc2nc(-c3cnc(N4CCC(CCF)CC4)nc3)cn2c1 [Compound 53] | 14 nM | 2.6 | 37 nM
6 | OCC1CCN(c2ccc(-c3nc4ccc(OCCF)cc4s3)cn2)CC1 [Compound 56] | 2 nM | 1.5 | 3 nM
7 | OCC1CCN(c2ncc(-c3nc4ccc(O)cc4s3)cn2)CC1 [Compound 57] | 12 nM | 25 | 302 nM
8 | OCC1CCN(c2ncc(-c3nc4ccc(OCCF)cc4s3)cn2)CC1 [Compound 58] | 6 nM | 6.2 | 37 nM
9 | O=C(NCCO)c1ccc2nc(-c3cnc(N4CCC(CCF)CC4)nc3)sc2c1 [Compound 60] | 11 nM | 2.5 | 28 nM
10 | OCC1CCN(c2ccc(-c3nc4ccc(OCCF)cc4o3)cn2)CC1 [Compound 62, (1-{5-[6-(2-Fluoroethoxy)-1,3-benzoxazol-2-yl]pyridin-2-yl}piperidin-4-yl)methanol] | 22 nM | 0.4 | 9 nM
11 | CCOC(=O)C1CCN(c2ccc(-c3cc4cc(O)ccc4[nH]3)c(F)n2)CC1 [Compound 65] | 2 nM | 22 | 44 nM
12 | NC(=O)C1CCN(c2ccc(-c3cc4cc(O)ccc4[nH]3)c(F)n2)CC1 [Compound 66] | 21 nM | 13 | 272 nM
13 | COC(=O)C1CCN(c2ccc(-c3cc4cc(O)ccc4[nH]3)c(F)n2)CC1 [Compound 67] | 4 nM | 8 | 32 nM
14 | COc1ccc2[nH]c(-c3ccc(N4CCC(C(N)=O)CC4)nc3F)cc2c1 [Compound 68] | 7 nM | 10 | 72 nM
15 | Oc1ccc2[nH]c(-c3cnc(N4CCC(CF)CC4)nc3)cc2c1 [Compound 69, 2-{2-[4-(Fluoromethyl)piperidin-1-yl]pyrimidin-5-yl}-1H-indol-5-ol] | 10 nM | 17 | 169 nM
16 | COc1ccc2[nH]c(-c3ccc(N4CCC(C(N)=O)CC4)nc3)cc2c1 [Compound 71, 1-[5-(5-Methoxy-1H-indol-2-yl)pyridin-2-yl]piperidine-4-carboxamide] | 16 nM | 7.1 | 114 nM
17 | OCC1CCN(c2ncc(-c3cc4cc(OCCF)ccc4[nH]3)cn2)CC1 [Compound 72, (1-{5-[5-(2-Fluoroethoxy)-1H-indol-2-yl]pyrimidin-2-yl}piperidin-4-yl)methanol] | 7 nM | 6 | 42 nM
18 | COc1ncc2cc(-c3ccc(N4CCC(CO)CC4)nc3F)[nH]c2n1 [Compound 76, [1-(6-Fluoro-5-{2-methoxy-7H-pyrrolo[2,3-d]pyrimidin-6-yl}pyridin-2-yl)piperidin-4-yl]methanol] | 9 nM | 36 | 322 nM
